In patent US20030087830A1, “Low molecular weight components of cartilage, complexes of metals with amino acids, DI-peptides and analogs thereof; processes for preparation and therapeutic uses thereof” (priority 2001, published 2003):

Legend:
[1] = system: Endothelial cells (HUVEC, BAEC); experiment: Endothelial cell proliferation; assay type: cell-based, human / bovine; details: for EC50: 48 hours, copper equivalent, NA = less than 50% at 1.25 mM copper equivalent, read-out: EC proliferation (EC50 mM)
Protocol: Endothelial and tumor cell proliferation assays were performed to determine the ability of test samples to inhibit endothelial cell proliferation (antiangiogenic activity), normal cell proliferation,and tumor cell proliferation.
Endothelial cells (Human umbilical vein endothelial cells (HUVEC), bovine aortic endothelial cells (BAEC)), skeletal muscle cells, human dermal fibroblasts (all from Clonetics, Walkersville, Md.) were respectively maintained in EBM-2, MDEM, SKGM and FGFM-2 complete media according to manufacturer's instructions. Tumor rat glioblastoma cell line (C6) was maintained in DMEM (Sigma, Oaksville, Ontario) supplemented with 10% fetal calf serum (FCS) and antibiotics in 5% CO2. Briefly, cells seeded in 96-well sterile tissue culture dishes were treated with increasing concentrations of different test samples for a period of 48 hours at 37° C. Cell number was then evaluated by a calorimetric assay using the cell proliferation reagent tetrazolium salt and the fluorimetric assay using DNA dye (Hoescht) according to the procedure established by the manufacturer (Boehringer Mannhein). The conversion of these tetrazolium salts into formazan occurs only in metabolically active cells. The percentage of cell inhibition was determined by comparison to untreated cells.
(§1) According to the endothelial cell proliferation assay, the relative effectiveness of two compounds is compared by reference to the EC50 thereof. The EC50 is the concentration of compound at which the number of endothelial cells is reduced by 50% as compared to control. The efficacy of the test samples in EVT is established by the percent of eggs with altered angiogenesis at a given inhibitor dose of 0.6 mg of copper equivalent (see FIG. 6 for examples). A comparison of the antiangiogenic activity of the compounds of the present invention with divalent metal salts (CuCl2, MgCl2, ZnCl2, CoCl2) and uncoupled alpha-amino acids, alpha-imino acids, dipeptides, and nitrogenated molecules comprising a carboxylic acid group, such as creatine, is provided to illustrate that the formation of the amino acid-copper complex gives rise to complexes having antiangiogenic activity.

[2] = system: Endothelial cells; experiment: Endothelial cell tubule formation assay (tubulogenesis); assay type: cell-based; parameters: key to Tubulogenesis: 0: Numerous capillary-like tube forming pentagonal network; +: Decrease of capillary-like tubes; ++: Dramatic decrease of capillary-like tubes; +++: Absence of capillary-like tubes
Protocol: The endothelial cell tubule formation assay is a semi-quantitative assay that was performed to determine the ability of test samples to inhibit this multi-step process, which involves cell adhesion, migration, differentiation and growth, using a commercial kit (Chemicon). Briefly, endothelial cells were seeded on solid gel of Ecmatrix™ (Chemicon), basement proteins prepared from the Engelbreth Holm-Swarm (EHS) mouse tumor in microplate in a E-99 media (Sigma) supplemented with 5% FBS and VEGF (50 ng/ml) in the presence or absence of the test sample. Cells were incubated for a period of 24 hours at 37° C. Pictures were taken on the entire tissue culture dish using a binocular microscope for further evaluation.

[3] = system: blood vessel formation in the vitelline membrane of chick embryo; experiment: Embryonic Vascularization Test (EVT); assay type: in vivo; details: for EVT (% of inhibition): activity at 0.6 mg equivalent Copper; for EVT activity (in words): in vivo
Protocol: The Embryonic Vascularization Test (EVT) was performed to determine the ability of test samples to inhibit the formation of new blood vessels (antiangiogenic activity).
The normal development of a chick embryo involves the formation of an external vascular system located in the vitelline membrane which carries nutrients from the vitellus (yolk) to the developing embryo. When placed onto the vitelline membrane, antiangiogenic substances can inhibit the blood vessel formation that occurs in the vitelline membrane. Briefly, methylcellulose discs (an inert solid and transparent matrix) containing different test samples were placed on the external border of the vascular perimeter of the vitelline membrane, where the angiogenic process occurs. Vascularization was assessed 24 hours after disc deposition, and results were expressed as the percent of embryos in which blood vessel formation was affected. The blood vessel formation was considered affected when its growing path was either deviated, or diminished or when there was no growth observed beyond the disc as compared to the negative control. The results are expressed as 0, +, and ++ where 0 is for a lower response than 25 percent of the eggs; + is for a response between 25 and 50 percent; and ++ is for an antiangiogenic response observed in more than 50 percent of the eggs.
as §1

[4] = Affinity of the amino acid with copper; assay type: physicochemical
[5] = system: Endothelial cells; experiment: Endothelial cell migration assay (VEGF, modified Boyden chamber); assay type: cell-based
Protocol: The endothelial cell migration assay was performed to determine the ability of test samples to inhibit the chemotaxic activity of vascular endothelial growth factor (VEGF;R/D System, MN) using a modified Boyden chamber (Transwell™, Corning/Costar). Briefly, polyvinylidene difluoride filters (PVDF) were coated with Pronectin F (Biosources, CA), a constituent of basement membrane barrier. Boyden chambers were assembled by adding VEGF to the culture media in the lower chamber (chemoattractant). Endothelial cells suspended in cultured media in the presence or the absence of the test samples were added to the upper chamber. The chambers were then incubated for a period of 4.5 hours at 37° C. At the end of the incubation period, the cells from both side of the PVDF membrane were fixed with 3.7% formaldehyde. Cells from the upper surface of the membrane were mechanically removed, and the cells remaining on the underside of the membrane were stained with crystal violet (0.5%; Sigma). Cells were then carefully rinsed and the dye fixed to the cells was quantified with a microplate reader ([…]) after its solubilization with a solution of 50% citric acid (0.1M) in water and 50% ethanol.

[6] = system: bFGF-stimulated blood vessel formation in Matrigel; experiment: Matrigel in vivo angiogenesis assay; parameters: species or system C57B1/6 mice; details: intra-peritoneal daily 10 days
Protocol: The Matrigel™ in vivo assay was performed to determine the ability of test samples to inhibit blood vessel formation (antiangiogenic activity) and to establish their bioavailability in vivo.
Briefly, liquid Matrigel™ (Becton Dickinson, Bedford, Mass.) was maintained at 4° C. and mixed thoroughly for at least 3 hours with 1,500 ng/ml basic fibroblast growth factor (bFGF) (R&D Systems, Minneapolis, Minn.) used as the primary angiogenic stimulus. The mixture (0.5 ml) was injected subcutaneously into the ventral midline of C57B1/6 mice, and treatment with different test samples or saline solution was initiated the same day. Additional animals were also injected with Matrigel™ containing no bFGF to serve as baseline controls. The animals were treated daily for a 10 day period (intra-peritonealy, 0.2 ml of each dose). At day 11, animals were injected with FITC-dextran 20 min prior to euthanizing treated mice. Matrigel™ gels were removed along with underlying peritoneum and prepared for FITC-dextran detection by fluorimetry. The concentration of FITC-dextran in the gels was calculated from a known concentration of FITC-dextran using a standard curve. The FITC-dextran content of the gels from compound-treated animals and controls was expressed as a percent of the positive bFGF-treated controls after the baseline control of FITC-dextran levels were subtracted from all groups.

[7] = 2.5 mM free (not complexed) ligand

Molecule Gly:Cu:L-Asp [Compound 22] has an EC50 [1] of 0.41 mM.
N[C@@H](CC(=O)O)C(=O)O [Free Asp, aspartic acid, reference compound] gave a Tubulogenesis [2, 7] of 0.
Gly:Cu:L-Thr [Compound 23] gave an EC50 [1] of 0.48 mM.
Work on L-Ala:Cu:Gly [Compound 18] yielded an EC50 [1] of 0.29 mM.
Molecule C[C@H](N)C(=O)O.N[C@@H](CCC(=O)[O-])C(=O)[O-].[Cu+2] [Compound 20, L-Ala:Cu:L-Glu] has an EC50 [1] of 0.28 mM.
In the case of D-Glu:Cu:D-GIu [Compound 15], the “Endothelial cell proliferation activity (in words)” value [1] is reported as “active” and the EC50 [1] is reported as 0.35 mM.
For NC(=O)CC[C@H](N)C(=O)[O-].NC(=O)CC[C@H](N)C(=O)[O-].[Cu+2] [Compound 11, L-Gln:Cu:L-Gln], the “EVT (% of inhibition)” value [3] was 0 (0 non-active (less than 25% of inhibition)), the EC50 [1] was 0.76 mM and the “Affinity of the AA with Cooper” value [4] was 15.5.
In the case of [Cl-].[Cl-].[Zn+2] [Zn++, reference compound], the EC50 [1] is reported as 0.19 mM.
With CC(O)C(N)C(=O)[O-].CC(O)C(N)C(=O)[O-].[Cu+2] [Compound 16, D-Thr:Cu:D-Thr] the “EVT activity (in words)” value [3] was “active”, the “Endothelial cell proliferation activity (in words)” value [1] was “active” and the EC50 [1] was 0.3 mM.
Work on L-Glu:Cu:L-Thr [Compound 27] yielded an EC50 [1] of 0.4 mM.
For N[C@@H](CO)C(=O)[O-].N[C@@H](CO)C(=O)[O-].[Cu+2] [Compound 3, L-Ser:Cu:L-Ser], the “EVT (% of inhibition)” value [3] was 0 (0 non-active (less than 25% of inhibition)), the “EVT activity (in words)” value [3] was “inactive” and the EC50 [1] was 0.34 mM. The “Affinity of the AA with Cooper” value [4] was 15.4.
Work on C[C@@H](O)[C@H](N)C(=O)[O-].N[C@@H](CC(=O)O)C(=O)[O-].[Cu+2] [Compound 25, L-Asp:Cu:L-Thr] yielded an EC50 [1] of 0.29 mM.
In the case of (Creatine)2-Cu [Compound 34], the “Endothelial cell proliferation activity (in words)” value [1] is reported as “excellent activity” and the EC50 [1] is reported as 0.28 mM.
In the case of L-Asp-Zn-L-Asp [Compound 32], the EC50 [1] is reported as 0.18 mM.
For [Cl][Cu][Cl] [CuCl2, copper chloride, reference compound], the “Cell migration activity (in words)” value [5] was “did not show any activity”, the “Cell Migration (% inhibition)” value ([5]; 1.25 mM) was 6% and the “Tubulogenesis activity (in words)” value [2] was “did not show any activity”. For the same molecule, the Tubulogenesis ([2]; 1.25 mM) was 0 and the “Matrigel in vivo % inhibition” value ([6]; 7.0 mg/Kg equivalent copper) was 24.2%.
With O=C([O-])[C@@H]1CCCN1.O=C([O-])[C@@H]1CCCN1.[Cu+2] [Compound 28, L-Pro:Cu:L-Pro] the “Endothelial cell proliferation activity (in words)” value [1] was “active complex”, the EC50 [1] was 0.28 mM and the “Affinity of the AA with Cooper” value [4] was 17.6.
For CC[C@H](C)[C@H](N)C(=O)[O-].CC[C@H](C)[C@H](N)C(=O)[O-].[Cu+2] [Compound 12, L-Ile:Cu:L-IIe], the EC50 [1] was 0.48 mM and the “Affinity of the AA with Cooper” value [4] was 16.6.
In the case of NCC(=O)[O-].NCC(=O)[O-].[Cu+2] [Compound 1, Gly:Cu:GIy], the “EVT (% of inhibition)” value [3] is reported as “++ (++ more than 50% of inhibition)”, the EC50 [1] is reported as 0.27 mM and the “Affinity of the AA with Cooper” value [4] is reported as 16.0.
For CC(N)C(=O)[O-].CC(N)C(=O)[O-].[Cu+2] [Compound 13, D-Ala:Cu:D-Ala], the “Endothelial cell proliferation activity (in words)” value [1] was “active” and the EC50 [1] was 0.44 mM.
Work on L-Ala:Cu:L-Thr [Compound 19] yielded an EC50 [1] of 0.36 mM.
For N=C(N)NCCC[C@H](N)C(=O)[O-].N=C(N)NCCC[C@H](N)C(=O)[O-].[Cu+2] [Compound 8, L-Arg:Cu:L-Arg], the “EVT (% of inhibition)” value [3] was “+ (+ between 25-50% of inhibition)”, the EC50 [1] was 0.32 mM and the “Affinity of the AA with Cooper” value [4] was 14.9.
For NCCCC[C@H](N)C(=O)[O-].NCCCC[C@H](N)C(=O)[O-].[Cu+2] [Compound 9, L-Lys:Cu:L-Lys], the “EVT (% of inhibition)” value [3] was “++ (++ more than 50% of inhibition)”, the EC50 [1] was 0.35 mM and the “Affinity of the AA with Cooper” value [4] was 14.4.
With L-Glu:Cu:L-Glu [Compound 7] the “EVT (% of inhibition)” value [3] was “++ (++ more than 50% of inhibition)”, the EC50 [1] was 0.35 mM and the “Matrigel in vivo % inhibition” value ([6]; 1.4 mg/Kg equivalent copper) was 42.6%. For the same molecule, the “Matrigel in vivo % inhibition” value ([6]; 7.0 mg/Kg equivalent copper) was 71.2%.
For N[C@H](Cc1c[nH]cn1)C(=O)[O-].N[C@H](Cc1c[nH]cn1)C(=O)[O-].[Cu+2] [Compound 17, D-His:Cu:D-His], the “EVT activity (in words)” value [3] was “inactive” and the “Endothelial cell proliferation activity (in words)” value [1] was “inactive”.
In the case of D-Asp:Cu:D-Asp [Compound 14], the “Endothelial cell proliferation activity (in words)” value [1] is reported as “active” and the EC50 [1] is reported as 0.37 mM.
With L-Asp-Co-L-Asp [Compound 30] the EC50 [1] was 0.27 mM.
L-Asp:Cu:L-Glu [Compound 26] gave an EC50 [1] of 0.25 mM.
C[C@@H](O)[C@H](N)C(=O)O [Free Thr, threonine, reference compound] gave a Tubulogenesis [2, 7] of 0.
In the case of CC(C)C(N)C(=O)[O-].CC(C)C(N)C(=O)[O-].[Cu+2] [Compound 4, L-Val:Cu:L-Val], the “EVT (% of inhibition)” value [3] is reported as “+ (+ between 25-50% of inhibition)”, the EC50 [1] is reported as 0.35 mM and the “Affinity of the AA with Cooper” value [4] is reported as 15.2.
L-AIa:Cu:L-Asp [Compound 21] gave an EC50 [1] of 0.32 mM.
Molecule Gly:Cu:L-Glu [Compound 24] has an EC50 [1] of 0.33 mM.
For N[C@@H](Cc1c[nH]cn1)C(=O)O [Free His, histidine, reference compound], the Tubulogenesis [2, 7] was 0.
For C[C@H](N)C(=O)[O-].C[C@H](N)C(=O)[O-].[Cu+2] [Compound 2, L-Ala:Cu:L-Ala], the “EVT (% of inhibition)” value [3] was “++ (++ more than 50% of inhibition)”, the EC50 [1] was 0.28 mM and the “Affinity of the AA with Cooper” value [4] was 15.9.
In the case of [Cl-].[Cl-].[Co+2] [Co++, reference compound], the EC50 [1] is reported as 0.27 mM.
